Results as given in PubChem BioAssay AID504419 (The Scripps Research Institute Molecular Screening Center, 2011).
pIC50: −log10 of the molar value. Where “and” joins values, the source holds several entries; their conditions need not be identical. Identical values can stand only once. Calls of active or inactive are those of the source. How the calls were made is not given here.

Key:
NS3h 1b (con1) = assay: NS3 helicase inhibitors across HCV genotypes, late-stage follow-up, selectivity assay for HCV NS3 helicase inhibitor project, biochemical, real-time fluorescence, genotypes 2a and 1b, Set 2 (AID 504419); details: Recombinant NS3 helicase, real-time fluorescence unwinding
NS3h 2a (JFH1) = assay: as above; details: Recombinant NS3 helicase, real-time fluorescence unwinding

SMILES	IC50 (NS3h 1b (con1))	IC50 (NS3h 2a (JFH1))	pIC50 (NS3h 1b (con1))	pIC50 (NS3h 2a (JFH1))
NC(=S)N/N=C/c1ccc(C23CC4CC(CC(C4)C2)C3)cc1	> 100 µM (inactive)	> 100 µM (inactive)		
NS(=O)(=O)c1ccc2nc(NC(=O)c3ccc4ncsc4c3)sc2c1	inactive	> 10.9 µM (inactive)		
CCOc1ccc(C2C(C(=O)c3ccc(C)o3)=C(O)C(=O)N2Cc2ccco2)cc1 (stereo not given)	> 100 µM (inactive)	> 100 µM (inactive)		
Cc1ccc2nc(-c3ccc4nc(-c5ccc(NC(=O)c6ccc7ccccc7c6)cc5)sc4c3)sc2c1S(=O)(=O)O			5.53	5.77
Cc1ccc2nc(-c3ccc(NC(=S)Nc4ccccc4Br)cc3)sc2c1	> 24 µM (inactive)	> 100 µM (inactive)		
COc1cc2oc(=O)cc(-c3ccc(-c4ccc(CO)cc4)cc3)c2c(OC)c1OC	> 100 µM (inactive)	> 100 µM (inactive)		
CCOc1ccc(N2C(=O)C3Sc4[nH]c(=O)sc4C(/C=C/c4ccccc4)C3C2=O)cc1 (stereo not given)	> 100 µM (inactive)	> 100 µM (inactive)		
CCc1cc2c(=O)n(Cc3ccco3)c(SCc3c(C)noc3C)nc2s1	> 100 µM (inactive)	> 100 µM (inactive)		
Cc1ccc2nc(-c3ccc4nc(-c5ccc(NC(=O)c6ccc(C(C)(C)C)cc6)cc5)sc4c3)sc2c1S(=O)(=O)O	inactive			5.30
O=c1c(O)cccc2cc(O)c(O)c(O)c12	> 100 µM (inactive)	> 100 µM (inactive)		
Cc1ccc2nc(-c3ccc4nc(-c5ccc(N)cc5)sc4c3)sc2c1S(=O)(=O)O	inactive	inactive		
Cc1ccc2nc(-c3ccc4nc(-c5ccc(NC(=O)c6ccc(Cl)cc6)cc5)sc4c3)sc2c1S(=O)(=O)O			5.37	5.58
CC(C)C(C)(C#N)NC(=O)CSc1nc2scc(-c3ccco3)c2c(=O)n1-c1ccccc1 (stereo not given)	> 100 µM (inactive)	> 100 µM (inactive)		
Cc1ccc2nc(-c3ccc(NC(=O)c4ccc5ncoc5c4)cc3)sc2c1	inactive	inactive		
O=C(NC(=S)Nc1ccc(-c2ccc(CO)o2)cc1)c1cccs1	> 100 µM (inactive)	> 100 µM (inactive)		
COc1ccc(N=Nc2ccc(O)c3ncccc23)c(S(=O)(=O)N(C)C)c1	> 100 µM (inactive)	> 100 µM (inactive)		
N#C/C(=C\c1ccc(O)c(O)c1)S(=O)(=O)c1ccccc1	> 100 µM (inactive)	> 100 µM (inactive)		
Nc1c(C(=O)Nc2ccccc2F)sc2nc(-c3ccco3)ccc12	> 100 µM (inactive)	> 100 µM (inactive)		
Cc1ccc2nc(-c3ccc4nc(-c5ccc(NC(=O)c6ccc7nc(-c8ccc(NC(=O)OCC9c%10ccccc%10-c%10ccccc%109)cc8)sc7c6)cc5)sc4c3)sc2c1S(=O)(=O)O		2.09 µM and > 28 µM (inactive)		
Cc1ccc2nc(-c3ccc4nc(-c5ccc(NC(=O)c6ccccc6)cc5)sc4c3)sc2c1S(=O)(=O)O	inactive			5.39
COc1cc(OC)c2c(-c3ccccc3)cc(=O)oc2c1[C@H](CCN1CCN(c2ccccc2)CC1)c1ccc(N(C)C)cc1	> 33.2 µM (inactive)	> 80.3 µM (inactive)		

SMILES	IC50 (NS3h 1b (con1))	IC50 (NS3h 2a (JFH1))	pIC50 (NS3h 1b (con1))	pIC50 (NS3h 2a (JFH1))
O=c1c2c(-c3ccco3)csc2nc(SCc2cn3ncccc3n2)n1-c1ccccc1	> 100 µM (inactive)	> 100 µM (inactive)		
CNc1ccc(Br)cc(C(=O)/C=C/c2cc(OC)ccc2OC)c1=O	> 100 µM (inactive)	> 100 µM (inactive)		
COC(=O)c1ccc(C(=O)Nc2ccc(-c3nc4ccc(-c5nc6ccc(C)c(S(=O)(=O)O)c6s5)cc4s3)cc2)cc1			5.16	5.30
CN(C)S(=O)(=O)c1cccc(NC(=S)N/N=C/c2cc(Br)ccc2O)c1	> 100 µM (inactive)	> 100 µM (inactive)		
Cc1ccc2nc(-c3ccc4nc(-c5ccc(NC(=O)c6ccc(N(C)C)cc6)cc5)sc4c3)sc2c1S(=O)(=O)O	inactive			5.21
Cc1ccc2nc(-c3ccc4nc(-c5ccc(NC(=O)c6ccc(F)cc6)cc5)sc4c3)sc2c1S(=O)(=O)O			5.27	5.56
Cc1ccc(C(=O)Nc2ccc(-c3nc4ccc(-c5nc6ccc(C)c(S(=O)(=O)O)c6s5)cc4s3)cc2)cc1			5.43	5.48
CCCCCOc1ccc(C2C(C(=O)c3ccc(C)o3)=C(OC)C(=O)N2c2cc(C)on2)cc1 (stereo not given)	> 100 µM (inactive)	> 100 µM (inactive)		
Cc1ccc(C(=O)C2=C(O)C(=O)N(Cc3ccco3)C2c2cc(Cl)cc(Cl)c2)o1 (stereo not given)	> 100 µM (inactive)	> 100 µM (inactive)		
Cc1ccc2nc(-c3ccc(NC(=O)c4ccc(F)cc4)cc3)sc2c1S(=O)(=O)O	> 100 µM (inactive)	> 100 µM (inactive)		
C/C(=N\NC(N)=S)c1cc(-c2ccccc2)c(-c2ccccc2)s1	> 100 µM (inactive)	> 100 µM (inactive)		
Cc1ccc(NC(=O)C2=C(c3ccccc3)S(=O)(=O)CCS2(=O)=O)cc1	> 100 µM (inactive)	> 100 µM (inactive)		
COc1cc2oc(=O)cc(-c3ccc(-c4ccc(NC(C)=O)cc4)cc3)c2c(OC)c1OC	> 100 µM (inactive)	> 100 µM (inactive)		
CCCCOc1ccccc1C(=O)NNC(=S)NC(=O)c1ccccc1[N+](=O)[O-]	> 100 µM (inactive)	> 100 µM (inactive)		
CN(C)c1ccc(O)c2c1C[C@H]1C[C@H]3[C@H](N(C)C)C(=O)C(C(N)=O)=C(O)[C@@]3(O)C(=O)C1=C2O	inactive	> 100 µM (inactive)		
COc1ccc(C(=O)Nc2ccc(-c3nc4ccc(-c5nc6ccc(C)c(S(=O)(=O)O)c6s5)cc4s3)cc2)cc1			5.08	5.24
COc1ccc(S(=O)(=O)Nc2ccc(-c3nc4ccc(-c5nc6ccc(C)c(S(=O)(=O)O)c6s5)cc4s3)cc2)cc1	inactive	inactive		
Cc1ccc2nc(-c3ccc4nc(NC(=O)c5ccc6ncoc6c5)sc4c3)sc2c1	inactive	inactive		
Cc1ccc2nc(-c3ccc4nc(-c5ccc(NC(=O)c6ccc7nc(-c8ccc(N)cc8)sc7c6)cc5)sc4c3)sc2c1S(=O)(=O)O			5.12	5.60
Cc1ccc(NC(=O)Nc2ccc(-c3nc4ccc(-c5nc6ccc(C)c(S(=O)(=O)O)c6s5)cc4s3)cc2)cc1			5.23	5.49
COc1c(N2CCN(C(=S)NCc3ccccc3)C(C)C2)c(F)cc2c(=O)c(C(=O)O)cn(C3CC3)c12 (stereo not given)	> 100 µM (inactive)	> 100 µM (inactive)		

SMILES	IC50 (NS3h 1b (con1))	IC50 (NS3h 2a (JFH1))	pIC50 (NS3h 1b (con1))	pIC50 (NS3h 2a (JFH1))
COc1ccc([C@H]2C[C@@H](c3ccccc3)Oc3cc(OC)c(OC)c(OC)c32)cc1	> 100 µM (inactive)	> 100 µM (inactive)		
COc1cc(Br)cc(C2C(C(=O)c3ccc(C)o3)=C(O)C(=O)N2Cc2ccco2)c1OC (stereo not given)	> 100 µM (inactive)	> 100 µM (inactive)		
CCN(CC)S(=O)(=O)c1cccc(C(=O)N/N=C/c2ccc(O)c(O)c2O)c1	> 100 µM (inactive)	> 100 µM (inactive)		
COc1cc(Br)cc(C2C(C(=O)c3ccc(C)o3)=C(O)C(=O)N2c2cc(C)on2)c1OC (stereo not given)	> 100 µM (inactive)	> 100 µM (inactive)		
CC1CCCCC1NC(=O)COC(=O)c1c2c(nc3ccccc13)/C(=C/c1ccco1)CC2 (stereo not given)	inactive	> 100 µM (inactive)		
Cc1ccc(/C=C/C(=O)Nc2ccc([N+](=O)[O-])c(NC(=O)/C=C/c3ccc(C)o3)c2)o1	> 38.1 µM (inactive)	> 100 µM (inactive)		
Cc1ccc2nc(-c3ccc4nc(-c5ccc6nc(-c7ccc8nc(-c9ccc(N)cc9)sc8c7)sc6c5)sc4c3)sc2c1S(=O)(=O)O			5.67	5.70
Cc1ccc(C(=O)C2=C(O)C(=O)N(Cc3ccccc3)C2c2cc(Cl)cc(Cl)c2)o1 (stereo not given)	> 100 µM (inactive)	> 100 µM (inactive)		
Cc1ccc2nc(-c3ccc4nc(-c5ccc(NC(=O)c6ccc(C(F)(F)F)cc6)cc5)sc4c3)sc2c1S(=O)(=O)O			5.75	5.60
CCOc1ccc(C2C(C(=O)c3ccc(C)o3)=C(O)C(=O)N2c2cc(C)on2)cc1 (stereo not given)	> 100 µM (inactive)	> 100 µM (inactive)		
C=C1c2cccc(O)c2C(O)=C2C(=O)[C@]3(O)C(O)=C(C(N)=O)C(=O)[C@@H](N(C)C)[C@@H]3[C@@H](O)[C@H]12	inactive	> 100 µM (inactive)		
O=C(Nc1nc(-c2ccco2)c(-c2ccco2)s1)C1CCC1	> 16.4 µM (inactive)	> 100 µM (inactive)		
Cc1cc(N2C(=O)C(O)=C(C(=O)c3ccc(C)o3)C2c2cc(Cl)cc(Cl)c2)no1 (stereo not given)	> 100 µM (inactive)	> 100 µM (inactive)		
CC(=O)c1ccc(-c2cccc(-c3cc(=O)oc4ccc(C(C)(C)C)cc34)c2)cc1	> 100 µM (inactive)	> 100 µM (inactive)		
CCCCCCCCCc1nc2sc3c(c2c(=O)n1NC(=O)c1ccccc1[N+](=O)[O-])CC(C)(C)OC3	> 100 µM (inactive)	> 100 µM (inactive)		
COc1cc(Br)cc(C2C(C(=O)c3ccc(C)o3)=C(O)C(=O)N2Cc2ccccc2)c1OC (stereo not given)	> 100 µM (inactive)	> 100 µM (inactive)		
CCCCOc1ccc(C2C(C(=O)c3ccc(C)o3)=C(O)C(=O)N2c2cc(C)on2)cc1 (stereo not given)	> 100 µM (inactive)	> 100 µM (inactive)		
Cc1ccc2nc(-c3ccc(NC(=O)c4ccc(F)cc4)cc3)sc2c1	> 100 µM (inactive)	> 100 µM (inactive)		
Cc1ccc2nc(-c3ccc4nc(-c5ccc(NC(=O)c6ccc(NC(=O)OCC7c8ccccc8-c8ccccc87)cc6)cc5)sc4c3)sc2c1S(=O)(=O)O			5.18	5.22
O=C1OC(c2ccc(F)cc2)=C/C1=C/c1ccc([N+](=O)[O-])o1	> 100 µM (inactive)	> 100 µM (inactive)		
Cc1ccc2nc(-c3ccc4nc(-c5ccc(NC(=O)c6ccc(N)cc6)cc5)sc4c3)sc2c1S(=O)(=O)O			5.11	5.36
